# Data reported in patent US4011221A, “S-Inosylcysteine and a process for producing the same” (Funai Pharmaceutical Industries, Ltd., priority 1974, dated 1977).
# Columns and labels:
# chick embryo heart cells [1] = experiment: Effect on proliferation of chick embryo heart cells (Experiments 1 and 2); assay type: cell-based; settings: for cell-proliferating activity (in words): summary statement, Tables I to V
# Description: A. Effect of S-inosylcysteine on proliferation of chick embryo heart cells.
# (§1) Method: The hearts excised from 13-day-old chick embryos were cut into pieces 1 to 2 mm in diameter under sterile conditions. After washing with calcium and magnesium-free phosphate buffered saline (PBS), the pieces of hearts were treated with a solution of 0.1% trypsin in PBS freed from calcium and magnesium ions, and the supernatant fraction was discarded. The residue was treated with a solution of 0.1% trypsin in PBS freed from calcium and magnesium ions, and the supernatant fractions containing isolated cells were collected. The procedure was repeated 3 times. The supernatant fractions were combined and diluted with cold culture medium containing 10% fetal calf serum, sodium penicillin G (100 units per ml) and sulfate streptomycin (1 μg per ml), and centrifuged at 150 xG. The resulting pellet was washed twice with the culture medium and diluted cautiously with the same culture medium to give a suspension which contains 200,000 cells per ml. One ml of the suspension was poured into each of 28 culture tubes which were equally divided into 7 groups. The cells were cultured at 37° C in an incubator. After 1 day of incubation the culture medium of the tubes was removed and 1 ml of each culture medium containing compound shown in Table I was added thereto. After additional 3 days of incubation the culture medium was removed and the cells were then treated with 1 ml of 0.1 M citric acid containing 0.1% crystal violet. The number of cells was counted with a hemocytometer in quadruplicate after vigorous shaking.
# (§2) Method: The culture procedure for chick embryo heart cells was employed as described in Experiment 1. After 3 days of incubation, the culture medium was removed and 1 ml of each culture medium containing compounds shown in Table II was added thereto. After an additional 1 day of incubation the number of cells was counted.
# chick embryo heart cells [2] = experiment: Effect on proliferation of chick embryo heart cells in the presence of a growth inhibitor, KCN (Experiments 3 and 4); assay type: cell-based; settings: KCN 1.7 μg per ml; for activity at 20 µg/mL / activity at 50 µg/mL: Gallus gallus; for activity at 20 µg/mL: 24 h
# Description: as §1, with “After” for “Method: The hearts excised from 13-day-old chick embryos were cut into pieces 1 to 2 mm in diameter under sterile conditions. After”, “The resulting pellet was washed twice with the culture medium and diluted cautiously with the same culture medium to give a suspension which contains 200,000 cells per ml.” left out, “shaking. […] After 3 days of incubation, the culture medium was removed and 1 ml of each culture medium containing compounds shown in Table II was added thereto. After an additional 1 day of incubation the number of cells was counted. […] Method: The culture procedure for chick embryo heart cells was employed as described in Experiment 1. After one day of incubation, the culture medium was removed and 1 ml of each culture medium containing KCN (1.7 μg per ml) and compounds shown in Table III were added thereto.” for “shaking.”
# chick embryo heart cells [3] = experiment: Effect on proliferation of chick embryo heart cells in the presence of 6-mercaptopurine (Experiment 5); assay type: cell-based; settings: Experiment 5, 20 μg/ml, 6-mercaptopurine 5 μg per ml; for activity at 20 µg/mL: Gallus gallus, 24 h
# Description: as §1, §2
# Method: Same as in Experiment 2 except that 6-mercaptopurine (5 μg per
# ml) was added to each culture
# pylorus ligation ulcer = experiment: Effect on pylorus ligation ulcer in rats (Experiments 6 and 7); assay type: in vivo, Male Wister rats; settings: for anti-ulcer activity (in words): summary statement, Tables VI to VIII
# Description: a. Effect of S-inosylcysteine on pylorus ligation ulcer.
# (§3) Method: Male Wister rats (Keari Gifu-Lab.), aged 7 weeks were used. After fasting for 48 hours, rats weighing 210 to 230 g were divided into 6 groups of 10 rats. The pylorus of stomach was ligated under light anesthesia with pentobarbital sodium (25 mg per kg, i.p.). Immediately after the ligation, a psysiological saline was orally administered to one group and a solution of each tested compound (50 mg per kg) was orally administered to the remaining 5 groups. After these rats were kept without food and water for 10 hours from the ligation, the stomach was removed under anesthesia with pentobarbital sodium (30 mg per kg, i.p.). The gastric contents were aspirated and the stomach was fixed by means of the injection of 10 ml of a 2% formalin solution into the lumen. The stomach was opened along its greater curvature. The severity of the lesion of the rumen, that is, the degree of ulcer was expressed as ulcer index according to the method of Yokotani (Folia pharmacol. Japon. 56, 1373, (1960). The results are shown in Table VI.
# *Inhibition rate was calculated as follows: […]
# Method: The same method as described in Experiment 6 was employed. The
# effect of S-inosyl-L-cysteine
# on pylorus ligation ulcer was examined with intramuscular administration.
# gastric secretion = experiment: Effect on gastric secretion in pylorus-ligated rats; assay type: in vivo, Male Wister rats; settings: 50 mg/kg, p.o., 5 hours from ligation
# Description: as §3
# b. Effect of S-inosylcysteine on gastric secretion. Method: The rats were ligated in the same manner as in Experiment 6, and divided into 2 groups of 10 rats. Immediately after the ligation, a physiological saline or a solution of S-inosyl-L-cysteine was orally administered. After the rats were kept without food and water for 5 hours from the ligation, the esophagus was ligated and the stomach was removed under anesthesia with pentobarbital sodium (30 mg per kg. i.p.). The gastric contents were collected and centrifuged at 2,000 rpm for 10 minutes. The volume of supernatant was measured and its pH was determined with a pH meter (Hitach-Horiba Type M-5). Free-HCl, total-HCl and total-acidity in the supernatant were determined by the titration with 1/50 N NaOH using Topfer's solution and phenolphtalein solution as an indicator.
smiles,measurement,setting,value
"N[C@@H](CSC[C@H]1O[C@@H](n2cnc3c(=O)[nH]cnc32)[C@H](O)[C@@H]1O)C(=O)O [S-inosyl-L-cysteine, 5'-S-(2-amino-2-carboxyethyl)-5'-thioinosine]",Cell number + S.E.,"chick embryo heart cells [1]; Experiment 1, 50 μg/ml, 3 days incubation",65.4 ± 1.6 ×10^4 cells
same,Cell number ± S.E.,"chick embryo heart cells [1]; Experiment 2, 20 μg/ml, 1 day with compound after 3 days of incubation",97.8 ± 3.8 ×10^4 cells
same,activity at 20 µg/mL,"chick embryo heart cells [1]; Gallus gallus, 24 h, Experiment 2, 20 μg/ml, control = 100.0, read-out: Growth rate (%)",120%
same,activity at 50 µg/mL,"chick embryo heart cells [1]; Gallus gallus, 72 h, Experiment 1, 50 μg/ml, control = 100.0, read-out: Growth rate %",128%
same,cell-proliferating activity (in words),chick embryo heart cells [1]; listed as S-inosycysteine,superior to those of known related compounds (2) to (10)
same,cell-proliferating activity (in words),chick embryo heart cells [1]; listed as S-inosylcysteine,remarkable
same,cell-proliferating activity (in words),chick embryo heart cells [1]; listed as S-inosylsteine,excellent
same,Cell number ± S.E.,"chick embryo heart cells [2]; Experiment 3, 50 μg/ml",50.9 ± 1.5 ×10^4 cells
same,Cell number ± S.E.,"chick embryo heart cells [2]; Experiment 4, 20 μg/ml",85.6 ± 0.4 ×10^4 cells
same,activity at 20 µg/mL,"chick embryo heart cells [2]; Experiment 4, 20 μg/ml, KCN control = 100.0, read-out: Growth rate (%)",130%
same,activity at 20 µg/mL,"chick embryo heart cells [2]; Experiment 4, 20 μg/ml, simultaneous with Experiment 2, read-out: Growth rate (%) with respect to control of Table II",105%
same,activity at 50 µg/mL,"chick embryo heart cells [2]; Experiment 3, 50 μg/ml, KCN control = 100.0, read-out: Growth Rate %",159%
same,activity at 50 µg/mL,"chick embryo heart cells [2]; Experiment 3, 50 μg/ml, simultaneous with Experiment 1, read-out: Growth rate (%) with respect to control of Table I",100%
same,Cell number ± S.E.,chick embryo heart cells [3],85.8 ± 2.9 ×10^4 cells
same,activity at 20 µg/mL,"chick embryo heart cells [3]; its control = 100.0, read-out: Growth Rate (%)",126%
same,activity at 20 µg/mL,"chick embryo heart cells [3]; simultaneous with Experiment 2, read-out: Growth rate (%) with respect to control of Table II",105%
same,Inhibition rate (%) of ulcer,"pylorus ligation ulcer; Experiment 6, 50 mg/kg, p.o.",42%
same,Mean ulcer index ± S.E.,"pylorus ligation ulcer; Experiment 6, 50 mg/kg, p.o., 10 hours from ligation",8.1 ± 1.1
same,Inhibition rate (%) of ulcer,"pylorus ligation ulcer; Experiment 7, 50 mg/kg, i.m.",59%
same,Mean ulcer index ± S.E.,"pylorus ligation ulcer; Experiment 7, 50 mg/kg, i.m.",5.1 ± 1.6
same,anti-ulcer activity (in words),pylorus ligation ulcer; listed as S-inosyl cysteine,superior to those of known related compounds (7) to (10)
same,anti-ulcer activity (in words),pylorus ligation ulcer; listed as S-inosylsteine,excellent
same,"Free-HCl, inhibition rate %",gastric secretion,36%
same,"Total-HCl, inhibition rate (%)",gastric secretion,23%
same,Total-acidity,gastric secretion,83.2 mEq/l
same,"Total-acidity, inhibition rate (%)",gastric secretion,22%
same,"Volume, inhibition rate (%)",gastric secretion,38%
same,pH (gastric contents supernatant),gastric secretion,1.50 ± 0.06
same,Free-HCl,gastric secretion; ± S.E.,42.8 ± 6.0 mEq/l
same,Total-HCl,gastric secretion; ± S.E.,73.8 ± 6.4 mEq/l
same,Volume (gastric contents supernatant),gastric secretion; ± S.E.,5.3 ± 0.5 mL
